ChEMBL document CHEMBL1201861, “Genomics of Drug Sensitity in Cancer screening data, Wellcome Trust Sanger Institute”

Key:
Test in all cases: cells
CAS-1 = type: functional, cell-based, Homo sapiens; settings: Homo sapiens, CAS-1;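 further: growth inhibition of CAS-1 cells, measured with a cell viability assay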
Description: SANGER: Inhibition of human CAS-1 cell growth in a cell viability assay.

697 = type: functional, cell-based, Homo sapiens; settings: Homo sapiens
Description: SANGER: Inhibition of human 697 cell growth in a cell viability assay.

SW872 = type: functional, cell-based, Homo sapiens; settings: Homo sapiens, SW872;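 further: growth inhibition of SW872 cells, read out by a viability assay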
Description: SANGER: Inhibition of human SW872 cell growth in a cell viability assay.

KM12 = type: functional, cell-based, Homo sapiens; settings: Homo sapiens, KM12;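 further: KM12 cell growth inhibition, read out with a cell viability assay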
Description: SANGER: Inhibition of human KM12 cell growth in a cell viability assay.

KM-H2 = type: functional, cell-based, Homo sapiens; settings: Homo sapiens, KM-H2;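 further: growth inhibition of KM-H2 cells, read out by a cell viability assay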
Description: SANGER: Inhibition of human KM-H2 cell growth in a cell viability assay.

D-502MG = type: functional, cell-based, Homo sapiens; settings: Homo sapiens, D-502MG
Description: SANGER: Inhibition of human D-502MG cell growth in a cell viability assay.

KARPAS-299 = type: functional, cell-based, Homo sapiens; settings: Homo sapiens, KARPAS-299
Description: SANGER: Inhibition of human KARPAS-299 cell growth in a cell viability assay.

LS-513 = type: functional, cell-based, Homo sapiens; settings: Homo sapiens, LS-513
Description: SANGER: Inhibition of human LS-513 cell growth in a cell viability assay.

KGN = type: functional, cell-based, Homo sapiens; settings: Homo sapiens, KGN;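 further: growth inhibition of KGN cells, read out with a cell viability assay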
Description: SANGER: Inhibition of human KGN cell growth in a cell viability assay.

KARPAS-45 = type: functional, cell-based, Homo sapiens; settings: Homo sapiens, KARPAS-45;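 further: inhibition of cell line growth, read out through a viability assay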
Description: SANGER: Inhibition of human KARPAS-45 cell growth in a cell viability assay.

SK-UT-1 = type: functional, cell-based, Homo sapiens; settings: Homo sapiens, SK-UT-1;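 further: growth inhibition of SK-UT-1 cells, measured by a cell viability assay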
Description: SANGER: Inhibition of human SK-UT-1 cell growth in a cell viability assay.

SW982 = type: functional, cell-based; settings: Homo sapiens;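 further: growth inhibition of SW982 cells, read out with a cell viability assay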
Description: SANGER: Inhibition of human SW982 cell growth in a cell viability assay.

HCC2157 = type: functional, cell-based, Homo sapiens; settings: Homo sapiens, HCC2157;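 further: growth inhibition of the cancer cell line, read out as cell viability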
Description: SANGER: Inhibition of human HCC2157 cell growth in a cell viability assay.

TE-5 = type: functional, cell-based, Homo sapiens; settings: Homo sapiens, TE-5;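 further: inhibition of cell growth, read out by a cell viability assay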
Description: SANGER: Inhibition of human TE-5 cell growth in a cell viability assay.

SNU1 = type: functional, cell-based, Homo sapiens; settings: Homo sapiens, SNU1;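 further: growth inhibition of human NCI-SNU-1 cells, measured with a cell viability assay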
Description: SANGER: Inhibition of human NCI-SNU-1 cell growth in a cell viability assay.

NEC8 = type: functional, cell-based, Homo sapiens; settings: Homo sapiens, NEC8;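 further: growth inhibition of human NEC8 cells, read out by a cell viability assay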
Description: SANGER: Inhibition of human NEC8 cell growth in a cell viability assay.

SF-539 = type: functional, cell-based, Homo sapiens; settings: Homo sapiens, SF-539;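 further: Read-out is a cell viability assay, with IC50 reflecting inhibition of cell growth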
Description: SANGER: Inhibition of human SF539 cell growth in a cell viability assay.

CCRF-CEM = type: functional, cell-based, Homo sapiens; settings: Homo sapiens, CCRF-CEM;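 further: inhibition of CCRF-CEM cell growth, measured by a cell viability assay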
Description: SANGER: Inhibition of human CCRF-CEM cell growth in a cell viability assay.

MFM-223 = type: functional, cell-based, Homo sapiens; settings: Homo sapiens, MFM-223
Description: SANGER: Inhibition of human MFM-223 cell growth in a cell viability assay.

KU812 cell line = type: functional, cell-based, Homo sapiens; settings: Homo sapiens, KU812;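 further: growth inhibition of KU812 cells, read out with a cell viability assay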
Description: SANGER: Inhibition of human KU812 cell growth in a cell viability assay.

SK-N-FI = type: functional, cell-based, Homo sapiens; settings: Homo sapiens, SK-N-FI;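 further: cell viability assay measuring growth inhibition of human SK-N-FI cells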
Description: SANGER: Inhibition of human SK-N-FI cell growth in a cell viability assay.

SHP77 = type: functional, cell-based, Homo sapiens, SHP-77; settings: Homo sapiens, SHP77;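 further: growth inhibition of human SHP-77 cells measured by a cell viability assay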
Description: SANGER: Inhibition of human SHP-77 cell growth in a cell viability assay.

EOL1 = type: functional, cell-based, Homo sapiens; settings: Homo sapiens, EOL1;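 further: growth inhibition of EoL-1 cells, read out by a cell viability assay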
Description: SANGER: Inhibition of human EoL-1-cell cell growth in a cell viability assay.

HCE-T = type: functional, cell-based, Homo sapiens; settings: Homo sapiens, HCE-T;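 further: cell viability assay read-out, reporting inhibition of HCE-T cell growth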
Description: SANGER: Inhibition of human HCE-T cell growth in a cell viability assay.

ATN-1 = type: functional, cell-based, Homo sapiens; settings: Homo sapiens, ATN-1;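 further: growth inhibition of human ATN-1 cells, read out with a cell viability assay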
Description: SANGER: Inhibition of human ATN-1 cell growth in a cell viability assay.

EW-16 = type: functional, cell-based, Homo sapiens; settings: Homo sapiens, EW-16;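 further: growth inhibition of human EW-16 cells, read out as cell viability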
Description: SANGER: Inhibition of human EW-16 cell growth in a cell viability assay.

DEL = type: functional, cell-based, Homo sapiens; settings: Homo sapiens, DEL;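 further: growth inhibition of the human DEL cell line, read out with a cell viability assay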
Description: SANGER: Inhibition of human DEL cell growth in a cell viability assay.

LB831-BLC = type: functional, cell-based, Homo sapiens; settings: Homo sapiens, LB831-BLC;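 further: growth inhibition of LB831-BLC cells, read out with a cell viability assay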
Description: SANGER: Inhibition of human LB831-BLC cell growth in a cell viability assay.

NCI-H2171 = type: functional, cell-based, Homo sapiens; settings: Homo sapiens, NCI-H2171;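 further: growth inhibition of human NCI-H2171 cells, read out by a cell viability assay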
Description: SANGER: Inhibition of human NCI-H2171 cell growth in a cell viability assay.

KNS-42 = type: functional, cell-based; settings: Homo sapiens;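 further: growth inhibition of KNS-42 cells, read out with a cell viability assay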
Description: SANGER: Inhibition of human KNS-42 cell growth in a cell viability assay.

NCI-H1417 = type: functional, cell-based, Homo sapiens; settings: Homo sapiens, NCI-H1417;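 further: human NCI-H1417 cells, growth inhibition determined with a cell viability readout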
Description: SANGER: Inhibition of human NCI-H1417 cell growth in a cell viability assay.

COLO-684 = type: functional, cell-based, Homo sapiens; settings: Homo sapiens, COLO-684
Description: SANGER: Inhibition of human COLO-684 cell growth in a cell viability assay.

L-428 = type: functional, cell-based, Homo sapiens; settings: Homo sapiens, L-428
Description: SANGER: Inhibition of human L-428 cell growth in a cell viability assay.

SK-MEL-1 = type: functional, cell-based, Homo sapiens; settings: Homo sapiens, SK-MEL-1;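 further: growth inhibition of human SK-MEL-1 cells, read out by a cell viability assay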
Description: SANGER: Inhibition of human SK-MEL-1 cell growth in a cell viability assay.

LB996-RCC = type: functional, cell-based, Homo sapiens; settings: Homo sapiens, LB996-RCC
Description: SANGER: Inhibition of human LB996-RCC cell growth in a cell viability assay.

RPMI-8866 = type: functional, cell-based, Homo sapiens; settings: Homo sapiens, RPMI-8866
Description: SANGER: Inhibition of human RPMI-8866 cell growth in a cell viability assay.

MZ7-mel = type: functional, cell-based, Homo sapiens; settings: Homo sapiens, MZ7-mel;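 further: growth inhibition of human MZ7-mel cells, measured by a cell viability assay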
Description: SANGER: Inhibition of human MZ7-mel cell growth in a cell viability assay.

ES8 = type: functional, cell-based, Homo sapiens; settings: Homo sapiens, ES8;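 further: growth inhibition of human ES8 cells, read out with a cell viability assay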
Description: SANGER: Inhibition of human ES8 cell growth in a cell viability assay.

Mo = type: functional, cell-based, Homo sapiens; settings: Homo sapiens, Mo
Description: SANGER: Inhibition of human Mo-T cell growth in a cell viability assay.

KLE = type: functional, cell-based; settings: Homo sapiens;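 further: growth inhibition of human KLE cells, read out with a cell viability assay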
Description: SANGER: Inhibition of human KLE cell growth in a cell viability assay.

COLO-829 = type: functional, cell-based, Homo sapiens; settings: Homo sapiens, COLO-829
Description: SANGER: Inhibition of human COLO-829 cell growth in a cell viability assay.

J-RT3-T3-5 = type: functional, cell-based, Homo sapiens; settings: Homo sapiens, J-RT3-T3-5;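 further: cell viability assay measuring growth inhibition of human J-RT3-T3-5 cells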
Description: SANGER: Inhibition of human J-RT3-T3-5 cell growth in a cell viability assay.

GB-1 = type: functional, cell-based, Homo sapiens; settings: Homo sapiens, GB-1;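 further: growth of GB-1 cells judged by a viability assay, IC50 marks the concentration inhibiting growth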
Description: SANGER: Inhibition of human GB-1 cell growth in a cell viability assay.

HCC2218 = type: functional, cell-based, Homo sapiens; settings: Homo sapiens, HCC2218;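 further: cell viability assay read-out, with IC50 given as the concentration that inhibits growth of the cell line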
Description: SANGER: Inhibition of human HCC2218 cell growth in a cell viability assay.

NCI-H1304 = type: functional, cell-based, Homo sapiens; settings: Homo sapiens, NCI-H1304;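 further: growth inhibition of the cancer cell line, measured in a cell viability assay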
Description: SANGER: Inhibition of human NCI-H1304 cell growth in a cell viability assay.

SCC-15 = type: functional, cell-based, Homo sapiens; settings: Homo sapiens, SCC-15;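 further: growth inhibition of SCC-15 cells, read out with a cell viability assay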
Description: SANGER: Inhibition of human SCC-15 cell growth in a cell viability assay.

LB2241-RCC = type: functional, cell-based, Homo sapiens; settings: Homo sapiens, LB2241-RCC;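 further: cell viability assay measuring how strongly the cultured human renal carcinoma line is prevented from growing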
Description: SANGER: Inhibition of human LB2241-RCC cell growth in a cell viability assay.

OVCAR-4 = type: functional, cell-based, Homo sapiens; settings: Homo sapiens, OVCAR-4;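 further: growth inhibition of human OVCAR-4 cells, measured with a cell viability assay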
Description: SANGER: Inhibition of human OVCAR-4 cell growth in a cell viability assay.

SNU-C2B = type: functional, cell-based; settings: Homo sapiens;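 further: cell viability readout used to measure compound-driven suppression of SNU-C2B cell proliferation, IC50 marking half-maximal growth inhibition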
Description: SANGER: Inhibition of human SNU-C2B cell growth in a cell viability assay.

TGBC1TKB = type: functional, cell-based, Homo sapiens; settings: Homo sapiens, TGBC1TKB;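 further: growth inhibition of TGBC1TKB cells, read out by a cell viability assay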
Description: SANGER: Inhibition of human TGBC1TKB cell growth in a cell viability assay.

Question: What does the source list for `Cc1cc(N2CCOCC2)cc2[nH]c(-c3c(NC[C@@H](O)c4cccc(Cl)c4)cc[nH]c3=O)nc12`?
Answer: IC50 (CAS-1): > 5120 nM; IC50 697: 1120 nM; IC50 (SW872): 1980 nM; IC50 (KM12): 28.4 nM; IC50 (KM-H2): > 5120 nM; IC50 (D-502MG): > 5120 nM; IC50 (KARPAS-299): 3850 nM; IC50 (LS-513): 4170 nM; IC50 (KGN): 1090 nM; IC50 (KARPAS-45): 4010 nM; IC50 (SK-UT-1): > 5120 nM; IC50 (SW982): 718 nM; IC50 (HCC2157): > 5120 nM; IC50 (TE-5): > 5120 nM; IC50 (SNU1): > 5120 nM; IC50 (NEC8): > 5120 nM; IC50 (SF-539): > 5120 nM; IC50 (CCRF-CEM): > 5120 nM; IC50 (MFM-223): > 5120 nM; IC50 (KU812 cell line): > 5120 nM; IC50 (SK-N-FI): > 5120 nM; IC50 (SHP77): > 5120 nM; IC50 (EOL1): 1570 nM; IC50 (HCE-T): > 5120 nM; IC50 (ATN-1): 250 nM; IC50 (EW-16): 206 nM; IC50 (DEL): 2700 nM; IC50 (LB831-BLC): 1500 nM; IC50 (NCI-H2171): > 5120 nM; IC50 (KNS-42): > 5120 nM; IC50 (NCI-H1417): > 5120 nM; IC50 (COLO-684): > 5120 nM; IC50 (L-428): > 5120 nM; IC50 (SK-MEL-1): > 5120 nM; IC50 (LB996-RCC): 816 nM; IC50 (RPMI-8866): > 5120 nM; IC50 (MZ7-mel): > 5120 nM; IC50 (ES8): 2300 nM; IC50 (Mo): > 5120 nM; IC50 (KLE): 3620 nM; IC50 (COLO-829): > 5120 nM; IC50 (J-RT3-T3-5): > 5120 nM; IC50 (GB-1): 495 nM; IC50 (HCC2218): > 5120 nM; IC50 (NCI-H1304): > 5120 nM; IC50 (SCC-15): > 5120 nM; IC50 (LB2241-RCC): > 5120 nM; IC50 (OVCAR-4): 4870 nM; IC50 (SNU-C2B): 2710 nM; IC50 (TGBC1TKB): 2310 nM

Question: What does the source list for `NC(=O)c1cccc(-c2cc(Nc3ccc(OC(F)(F)F)cc3)ncn2)c1`?
Answer: IC50 (CAS-1): > 1280 nM; IC50 697: > 1280 nM; IC50 (SW872): > 1280 nM; IC50 (KM12): > 1280 nM; IC50 (KM-H2): > 1280 nM; IC50 (D-502MG): > 1280 nM; IC50 (KARPAS-299): > 1280 nM; IC50 (LS-513): > 1280 nM; IC50 (KGN): > 1280 nM; IC50 (KARPAS-45): > 1280 nM; IC50 (SK-UT-1): > 1280 nM; IC50 (SW982): > 1280 nM; IC50 (HCC2157): > 1280 nM; IC50 (TE-5): > 1280 nM; IC50 (SNU1): > 1280 nM; IC50 (NEC8): > 1280 nM; IC50 (SF-539): > 1280 nM; IC50 (CCRF-CEM): > 1280 nM; IC50 (MFM-223): > 1280 nM; IC50 (KU812 cell line): > 1280 nM; IC50 (SK-N-FI): > 1280 nM; IC50 (SHP77): > 1280 nM; IC50 (EOL1): > 1280 nM; IC50 (HCE-T): > 1280 nM; IC50 (ATN-1): > 1280 nM; IC50 (EW-16): > 1280 nM; IC50 (DEL): > 1280 nM; IC50 (LB831-BLC): > 1280 nM; IC50 (NCI-H2171): > 1280 nM; IC50 (KNS-42): > 1280 nM; IC50 (NCI-H1417): > 1280 nM; IC50 (COLO-684): > 1280 nM; IC50 (L-428): > 1280 nM; IC50 (SK-MEL-1): > 1280 nM; IC50 (LB996-RCC): > 1280 nM; IC50 (RPMI-8866): > 1280 nM; IC50 (MZ7-mel): > 1280 nM; IC50 (ES8): > 1280 nM; IC50 (Mo): > 1280 nM; IC50 (KLE): > 1280 nM; IC50 (COLO-829): > 1280 nM; IC50 (J-RT3-T3-5): > 1280 nM; IC50 (GB-1): > 1280 nM; IC50 (HCC2218): > 1280 nM; IC50 (NCI-H1304): > 1280 nM; IC50 (SCC-15): > 1280 nM; IC50 (LB2241-RCC): > 1280 nM; IC50 (OVCAR-4): > 1280 nM; IC50 (SNU-C2B): > 1280 nM; IC50 (TGBC1TKB): > 1280 nM
